Converted amounts (≈) assume the structure as drawn. “Also recorded” adds a separate entry of the source.
Legend:
Mtb H37Rv [1] = experiment: Checkerboard assay, purine supplementation versus VCC234718; assay type: cell-based, Mycobacterium tuberculosis; settings: for MIC90: Mycobacterium tuberculosis, H37RV
Mtb H37Rv [2] = experiment: Time-kill kinetics; assay type: cell-based; settings: Mycobacterium tuberculosis, read-out: 99% minimum bactericidal concentration (MBC99)
Mtb SRMV2.10 = experiment: microbe, parasite or virus in culture; assay type: cell-based; settings: Mycobacterium tuberculosis
Mtb H37Rv attB::guaB2 = experiment: MIC by AlamarBlue assay; assay type: cell-based; settings: Mycobacterium tuberculosis
[3] = test system: Mtb guaB2-guaB3 Tet-OFF attB::guaB3; experiment: microbe, parasite or virus in culture; assay type: cell-based, Mycobacterium tuberculosis; settings: for effect of guaB2 silencing on susceptibility: data not shown
Mtb H37Rv (H37RvMA) = experiment: MIC by broth microdilution, AlamarBlue assay; assay type: cell-based; settings: Mycobacterium tuberculosis
[4] = test system: Mtb-infected activated THP-1 macrophages; assay type: cell-based, human
[5] = human primary hepatocytes
replicating H37Rv = experiment: microbe, parasite or virus in culture; assay type: cell-based, Mycobacterium tuberculosis
[6] = human and rodent liver microsomes and human liver primary hepatocytes
Mtb GuaB2 = Mtb GuaB2 (Mycobacterium tuberculosis, UniProt P9WKI7); experiment: biochemical
[7] = test system: Caco-2/TC-7 cell monolayers; settings: threshold value 20 × 10^–7 cm s^–1
[8] = test system: Mtb-infected MRC-5 fibroblasts; assay type: cell-based, human; settings: concentration up to 50 μM
[9] = test system: PDIM-deficient H37Rv strain (H37RvJO); experiment: MIC by AlamarBlue assay; assay type: cell-based; settings: Mycobacterium tuberculosis
Mtb SRMV2.3 = experiment: microbe, parasite or virus in culture; assay type: cell-based; settings: Mycobacterium tuberculosis
Mtb SRMV2.6 = experiment: microbe, parasite or virus in culture; assay type: cell-based, Mycobacterium tuberculosis
[10] = test system: Mtb SRMV2.6 attB::guaB2-guaB3; experiment: MIC by AlamarBlue assay; assay type: cell-based; settings: Mycobacterium tuberculosis
Mtb SRMV2.6 attB::guaB2 = experiment: MIC by AlamarBlue assay; assay type: cell-based; settings: Mycobacterium tuberculosis
[11] = test system: Mtb H37Rv attB::guaB2-guaB3; experiment: MIC by AlamarBlue assay; assay type: cell-based; settings: Mycobacterium tuberculosis
[12] = test system: nonreplicating, streptomycin-starved Mtb 18b or 18b-Lux; experiment: Activity against nonreplicating bacilli; assay type: cell-based, Mycobacterium tuberculosis; settings: concentrations up to 20 μM
human ERG channel = human ERG channel (Homo sapiens, UniProt Q12809); experiment: cell-based
[13] = test system: Corynebacterium glutamicum; settings: phenotypic screen; cited from earlier work
[14] = test system: Mtb guaB2-guaB3 Tet-OFF attB::guaB3 and guaB2-guaB3 Tet-OFF; assay type: cell-based, Mycobacterium tuberculosis

Mtb GuaB2, sequence (P9WKI7 whole entry, looked up): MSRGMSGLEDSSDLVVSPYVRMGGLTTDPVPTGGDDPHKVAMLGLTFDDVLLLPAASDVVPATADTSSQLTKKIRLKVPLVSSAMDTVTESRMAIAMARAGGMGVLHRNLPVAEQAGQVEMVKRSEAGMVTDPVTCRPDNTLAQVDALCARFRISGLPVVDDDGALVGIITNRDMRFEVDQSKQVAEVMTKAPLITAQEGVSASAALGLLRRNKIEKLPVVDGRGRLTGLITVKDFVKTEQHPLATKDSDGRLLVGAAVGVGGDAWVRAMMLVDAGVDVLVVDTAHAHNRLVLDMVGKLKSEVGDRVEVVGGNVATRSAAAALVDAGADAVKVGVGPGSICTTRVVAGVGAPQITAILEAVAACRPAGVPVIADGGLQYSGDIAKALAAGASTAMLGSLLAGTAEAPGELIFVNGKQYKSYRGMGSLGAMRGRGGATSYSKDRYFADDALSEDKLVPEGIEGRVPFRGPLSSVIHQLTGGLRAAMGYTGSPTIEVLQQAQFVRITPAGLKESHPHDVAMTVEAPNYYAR
human ERG channel, sequence (Q12809 whole entry): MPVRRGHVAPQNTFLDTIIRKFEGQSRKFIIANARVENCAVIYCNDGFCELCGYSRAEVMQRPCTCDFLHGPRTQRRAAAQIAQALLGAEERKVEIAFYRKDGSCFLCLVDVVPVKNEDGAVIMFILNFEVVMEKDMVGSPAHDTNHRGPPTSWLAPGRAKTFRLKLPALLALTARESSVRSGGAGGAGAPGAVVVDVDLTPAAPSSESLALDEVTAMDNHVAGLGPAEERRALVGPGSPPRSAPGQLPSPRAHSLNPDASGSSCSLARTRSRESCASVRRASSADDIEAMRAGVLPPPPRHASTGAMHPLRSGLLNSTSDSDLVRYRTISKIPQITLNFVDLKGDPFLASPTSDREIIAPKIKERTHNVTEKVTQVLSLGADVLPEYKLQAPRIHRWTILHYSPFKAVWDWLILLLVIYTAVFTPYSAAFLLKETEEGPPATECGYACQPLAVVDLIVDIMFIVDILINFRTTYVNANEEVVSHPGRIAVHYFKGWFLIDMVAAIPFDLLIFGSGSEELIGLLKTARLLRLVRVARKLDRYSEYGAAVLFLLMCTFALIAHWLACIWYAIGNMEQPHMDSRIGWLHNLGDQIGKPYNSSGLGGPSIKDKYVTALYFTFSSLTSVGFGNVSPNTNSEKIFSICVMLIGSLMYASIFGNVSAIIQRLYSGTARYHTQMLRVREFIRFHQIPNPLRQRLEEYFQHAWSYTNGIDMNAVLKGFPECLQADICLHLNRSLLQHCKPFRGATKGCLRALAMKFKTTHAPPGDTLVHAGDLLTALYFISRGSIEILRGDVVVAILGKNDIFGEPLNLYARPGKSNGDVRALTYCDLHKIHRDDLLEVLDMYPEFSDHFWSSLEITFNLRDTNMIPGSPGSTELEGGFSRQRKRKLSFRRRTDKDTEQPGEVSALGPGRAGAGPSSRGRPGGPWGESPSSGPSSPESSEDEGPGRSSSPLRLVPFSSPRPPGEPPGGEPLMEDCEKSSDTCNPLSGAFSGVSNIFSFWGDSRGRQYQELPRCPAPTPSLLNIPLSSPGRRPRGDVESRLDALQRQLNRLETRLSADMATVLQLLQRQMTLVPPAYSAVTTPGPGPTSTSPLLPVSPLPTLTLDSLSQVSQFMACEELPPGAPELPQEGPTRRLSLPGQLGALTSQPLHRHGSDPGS

For O=c1[nH]c(=O)c2nc[nH]c2[nH]1 [xanthine], the “effect of supplementation on VCC234718 toxicity” value (shortened to “effect of supplementation”) (Mtb H37Rv [1]) was “no effect”.

For O=C(C1CCCCC1)N1CCN(S(=O)(=O)c2cccc3cnccc23)CC1 [VCC234718, N-(5-Isoquinolinylsulfonyl)-N’-cyclohexanoyl-piperazine], the MBC (Mtb H37Rv [2]) was 16 to 32 µM (≈ 6.2 to 12.4 µg/mL), the MIC90 (Mtb SRMV2.10) was 8 µM (≈ 3.1 µg/mL) and the MIC90 (Mtb H37Rv attB::guaB2) was 4 to 8 µM (≈ 1.55 to 3.1 µg/mL). The MIC90 ([3]; Mycobacterium tuberculosis, checkerboard, before guaB2 silencing (lowest ATc)) was 2.5 µM, the MIC90 (Mtb H37Rv (H37RvMA)) was 2 µM (≈ 0.775 µg/mL) and the “concentrations displaying anticytolytic activity in activated THP-1 macrophages” value [4] was over 1 µM. For the same compound, the MIC90 (Mtb H37Rv [1]; checkerboard, without guanine) was 2 µM, the MIC90 (Mtb H37Rv [1]; guanine concentration of 200 μM) was over 64 µM and the “contribution of CYP3A4 to metabolism (in words)” value [5] was “no contribution”. For the same compound, the inhibition at 20 µM (replicating H37Rv; Mycobacterium tuberculosis, H37RV, 168 h, read-out: percentage inhibition of resazurin reduction) was over 80%, the MIC90 (replicating H37Rv; Mycobacterium tuberculosis, H37RV, read-out: 90% minimum inhibitory concentration (MIC90)) was 5 µM (≈ 1.94 µg/mL) and the “inhibition of H37Rv growth” value (replicating H37Rv; at 20 μM) was “totally inhibit”. The “metabolism (in words)” value [6] was “highly metabolized”, the Ki (Mtb GuaB2; Mtb GuaB2) was 100 nM and the Ki (Mtb GuaB2; Mtb GuaB2, IMP as the substrate) was 120 nM. For the same compound, the mechanism of inhibition (Mtb GuaB2; with respect to IMP and NAD+) was “uncompetitive”, the “permeability (in words)” value [7] was “very high” and the “anticytolytic activity in MRC-5 fibroblasts” value [8] was “completely inactive”. It also gave an MIC90 [9] of 2 µM (≈ 0.775 µg/mL), an MIC90 (Mtb SRMV2.3) of 16 µM (≈ 6.2 µg/mL) and an MIC90 (Mtb SRMV2.6; Mycobacterium tuberculosis, SRMV2.6) of over 100 µM. For the same compound, the MIC90 (Mtb SRMV2.6; strain SRMV2.6) was over 100 µM, the MIC90 [10] was over 200 µM and the MIC90 (Mtb SRMV2.6 attB::guaB2) was over 200 µM. For the same compound, the MIC90 [11] was 4 to 8 µM (≈ 1.55 to 3.1 µg/mL), the “inhibition of nonreplicating Mtb” value [12] was “not significantly inhibiting” and the IC50 (human ERG channel) was 13700 nM. For the same compound, the whole-cell activity [13] was “not against Corynebacterium glutamicum”.

For NNC(=O)c1ccncc1 [isoniazid], the “effect of guaB2 silencing on susceptibility” value (shortened to “effect of guaB2 silencing”) [3] was “no effect”.

In the case of C[C@H]1COc2c(N3CCN(C)CC3)c(F)cc3c(=O)c(C(=O)O)cn1c23 [levofloxacin], the “effect of guaB2 silencing” value [3] is reported as “no effect”.

For [H]/N=C(/N)N[C@H]1[C@H](O)[C@@H](O)[C@H](O[C@@H]2O[C@@H](C)[C@](O)(C=O)[C@H]2O[C@@H]2O[C@@H](CO)[C@H](O)[C@@H](O)[C@@H]2NC)[C@@H](N/C(N)=N\[H])[C@@H]1O [streptomycin], the “effect of guaB2 silencing” value [3] was “no effect”.

In the case of Nc1ncnc2[nH]cnc12 [adenine], the “effect of supplementation” value (Mtb H37Rv [1]) is reported as “neither adenine nor guanosine supplementation was able to rescue”.

For Nc1nc2nc[nH]c2c(=O)[nH]1 [guanine], the “rescue of Mtb from VCC234718 toxicity” value (Mtb H37Rv [1]; VCC234718 at 128 μM) was “unable to rescue” and the “guanine concentration giving essentially complete rescue from ATc toxicity” value [14] was at least 125 µM.

With CC[C@@H](CO)NCCN[C@@H](CC)CO [ethambutol] the “effect of guaB2 silencing” value [3] was “no effect”.

In the case of Nc1nc2c(ncn2[C@@H]2O[C@H](CO)[C@@H](O)[C@H]2O)c(=O)[nH]1 [guanosine], the “effect of supplementation” value (Mtb H37Rv [1]) is reported as “neither adenine nor guanosine supplementation was able to rescue; also recorded: failed to rescue”.

For CO[C@H]1/C=C/O[C@@]2(C)Oc3c(C)c(O)c4c(O)c(c(/C=N/N5CCN(C)CC5)c(O)c4c3C2=O)NC(=O)/C(C)=C\C=C\[C@H](C)[C@H](O)[C@@H](C)[C@@H](O)[C@@H](C)[C@H](OC(C)=O)[C@@H]1C [rifampicin], the “effect of guaB2 silencing” value [3] was “no effect”.
